According to US11046660B2, “Compounds and their use as PDE4 activators” (MIRONID LIMITED, priority 2016, dated 2021):

Assays:
full-length human PDE4D5 = target: T1, full-length human PDE4D5 (Homo sapiens, UniProt Q08499); experiment: PDE4D5 long form enzyme activation radio-assay (Experiment 1, Protocol A or B); format: biochemical; conditions: for activation at 30 µM: mean % increase in counts over basal activity
T1 construct: stably expressed the full-length human PDE4D5, PDE4A4 and PDE4B1 long isoforms; made in house; cytosol fraction of cell lysate
Description: (§1) Experiment 1: Identification of PDE4 Long Form Activators of the Present Invention Using Full-Length Human PDE4 Isoforms PDE4D5, PDE4A4, PDE4B1 and PDE4B2
(§2) HEK 293 cells were transfected with pDEST™ PDE4 expression vectors using Lipofectamine LTX/Plus reagent (Invitrogen) as outlined by the manufacturer and clonal isolates expanded to obtain cell lines that stably expressed the full-length human PDE4D5, PDE4A4 and PDE4B1 long isoforms and the full length human PDE4B2 short isoform. These were called the HEK-PDE4D5, HEK-PDE4A4, HEK-PDE4B1 and HEK-PDE4B2 cell lines, respectively.
(§3) HEK-PDE4D5 cells were seeded out in 100 mm plates and incubated at 37° C. in an atmosphere of 5% CO2, 95% air. Cell lysates were prepared using KHEM buffer [50 mM KCl, 10 mM EGTA, 50 mM HEPES (pH 7.2), 1.92 mM MgCl2].
(§4) To prepare the cell lysates, the 100 mm plates containing the cells were placed on ice and washed with ice-cold PBS (phosphate buffered saline, pH 7.4). KHEM buffer (500 μl) was added to the cells. Cells were then scraped off the plate and triturated using a needle (BD Microlance™ 0.8, 40 mm). The lysed cells were then centrifuged at 2000 rpm for 10 minutes to remove cell debris and the supernatant (cell lysate containing recombinant PDE4D5) was transferred to a fresh tube and kept on ice.
(§5) The cell lysate containing recombinant PDE4D5 was transferred into a centrifuge tube and placed into an ultracentrifuge (BECKMAN COULTER) and spun at high speed (100,000 g) for 30 minutes at 4° C. The cytosol fraction was then collected and its protein amount determined using a BCA protein assay.
(§6) PDE assays were performed using a final concentration of 10 mM Tris/5 mM MgCl2 and 1 μM [^3H]-cAMP (Perkin Elmer) plus PDE4D5 cell lysate cytosol fraction, containing over-expressed PDE4D5, with and without test compound. Incubations were performed at 30° C. for 5 minutes. The samples were then placed in a boiling water bath for 2 minutes to denature the PDE enzyme, and returned to ice. Samples were allowed to cool for 10 min after which snake venom 5′-nucleotidase (25 μl, 1 mg/ml; Sigma) was added. The tubes were vortexed and incubated in a water bath at 30° C. for 10 minutes, to attain conversion of [^3H]-5′-AMP to [^3H]-adenosine, and then placed on ice. Dowex ion exchange resin (Sigma) prepared as a 1:1 Dowex: water stock was thoroughly re-suspended and diluted 2:1 with ethanol. The resulting Dowex suspension (0.4 ml) was added to each tube. Tubes were vortexed to mix and then incubated on ice for at least 15 minutes before a final vortex. The Dowex resin was pelleted by centrifugation at 13,000 g at 4° C. for 3 minutes and 150 μl of the supernatant was removed to an Eppendorf tube containing 1 ml of ScintiSafe3 scintillation fluid (Fisher). Tubes were vortexed thoroughly to mix and the recovered [^3H]-adenosine was quantified by measuring counts over 1 minute in a scintillation counter.
(§7) The % increase in counts in the presence of test compound at a particular concentration indicates the % increase in enzyme activity at that concentration.
(§8) PDE assays were performed in thin walled V-bottomed 96-well plates. The assays were performed at a final concentration of 10 mM Tris/5 mM MgCl2 plus PDE4D5 cell lysate cytosol fraction, containing over-expressed PDE4D5, with and without test compound. The lysate/compound mix were incubated together for 15 min at room temperature on an orbital shaker prior to addition of [^3H] cAMP (final concentration 1 μM [^3H] cAMP; Perkin Elmer) to a final volume of 50 μl per reaction. The reactions were then incubated for 10 minutes at 30° C., terminated by heating for 2 min at 95° C. and allowed to cool. Snake venom (12.5 μl of 1 mg/ml; Crotalus atrox, Sigma) was then added and the plates were agitated and incubated for a further 15 minutes at 30° C. […]

full-length human PDE4B2 = target: T2, full-length human PDE4B2 (Homo sapiens, UniProt Q07343); experiment: PDE4B2 short form enzyme activation radio-assay (Experiment 1, Protocol A or B); format: biochemical; conditions: for activation at 30 µM: mean % increase in counts over basal activity
T2 construct: and the full length human PDE4B2 short isoform; made in house; cytosol fraction of cell lysate
Description: as §1, §2, §3, §4, §5, §6, §7, §8

T1 sequence (Q08499 1-745 isoform Q08499-6): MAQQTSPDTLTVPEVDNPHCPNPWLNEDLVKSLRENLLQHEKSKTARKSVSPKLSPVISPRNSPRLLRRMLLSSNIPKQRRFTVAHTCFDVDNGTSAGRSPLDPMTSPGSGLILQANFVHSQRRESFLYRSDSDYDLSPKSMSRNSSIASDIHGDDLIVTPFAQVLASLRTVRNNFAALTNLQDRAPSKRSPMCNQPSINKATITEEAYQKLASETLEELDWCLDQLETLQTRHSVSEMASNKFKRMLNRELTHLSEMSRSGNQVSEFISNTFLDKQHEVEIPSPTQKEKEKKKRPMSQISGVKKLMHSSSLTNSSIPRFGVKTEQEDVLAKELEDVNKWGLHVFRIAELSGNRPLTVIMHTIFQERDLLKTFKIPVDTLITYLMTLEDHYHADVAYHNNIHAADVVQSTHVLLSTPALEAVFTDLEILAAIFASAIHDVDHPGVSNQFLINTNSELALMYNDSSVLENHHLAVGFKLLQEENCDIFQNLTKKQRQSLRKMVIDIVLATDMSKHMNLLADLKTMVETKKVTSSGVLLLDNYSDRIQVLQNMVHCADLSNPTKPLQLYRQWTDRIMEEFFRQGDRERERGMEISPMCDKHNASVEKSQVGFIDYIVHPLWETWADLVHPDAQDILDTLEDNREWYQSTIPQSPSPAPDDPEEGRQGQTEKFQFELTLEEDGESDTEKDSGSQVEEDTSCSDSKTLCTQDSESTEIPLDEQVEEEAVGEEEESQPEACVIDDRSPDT
T2 sequence (Q07343 1-564 isoform Q07343-2): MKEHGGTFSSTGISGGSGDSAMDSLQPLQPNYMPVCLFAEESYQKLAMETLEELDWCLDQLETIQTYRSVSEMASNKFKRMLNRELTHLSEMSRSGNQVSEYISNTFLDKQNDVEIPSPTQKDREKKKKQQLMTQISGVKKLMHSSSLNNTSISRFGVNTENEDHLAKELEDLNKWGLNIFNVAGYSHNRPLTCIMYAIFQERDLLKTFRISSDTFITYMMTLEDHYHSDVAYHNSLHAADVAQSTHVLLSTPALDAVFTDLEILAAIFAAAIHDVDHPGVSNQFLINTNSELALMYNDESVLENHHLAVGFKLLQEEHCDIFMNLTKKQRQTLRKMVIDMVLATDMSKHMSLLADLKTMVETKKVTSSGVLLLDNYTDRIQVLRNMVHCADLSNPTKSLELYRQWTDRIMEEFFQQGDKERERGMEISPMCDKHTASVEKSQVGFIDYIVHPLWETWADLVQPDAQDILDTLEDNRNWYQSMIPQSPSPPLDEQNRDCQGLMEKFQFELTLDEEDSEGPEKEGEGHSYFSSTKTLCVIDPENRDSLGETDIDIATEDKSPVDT

| activation at 30 µM (full-length human PDE4D5; Protocol B) [%] | SMILES | further results |
| --- | --- | --- |
| 53.1 | O=C(Cn1nc(-c2ccc(Cl)c(F)c2)nc1C(=O)NC1CCCCC1)NCc1cccc(F)c1 [Example 22, 3-(4-chloro-3-fluorophenyl)-1-{[(3-fluorobenzyl)carbamoyl]methyl}-N-cyclohexyl-1H-1,2,4-triazole-5-carboxamide] | – |
| – | CCOC(=O)c1nc(-c2ccc(Cl)c(F)c2)nn1CC(=O)NCc1ccccc1 [Example 2, Ethyl 1-[(benzylcarbamoyl)methyl]-3-(4-chloro-3-fluorophenyl)-1H-1,2,4-triazole-5-carboxylate] | activation at 30 µM (full-length human PDE4B2; Protocol A): -2.5%; activation of PDE4 short form PDE4B2 (in words) (full-length human PDE4B2; Protocol A, FIG. 1(b)): lack of activation; activation at 30 µM (full-length human PDE4D5; Protocol A): 92.9%; activation of PDE4 long form PDE4D5 (in words) (full-length human PDE4D5; Protocol A, FIG. 1(a)): dose dependent activation |
| 81.1 | COc1cccc(CNC(=O)Cn2nc(-c3ccc(Cl)c(F)c3)nc2C(=O)NC(C)C)c1 [Example 17, 3-(4-chloro-3-fluorophenyl)-1-{[(3-methoxybenzyl)carbamoyl]methyl}-N-isopropyl-1H-1,2,4-triazole-5-carboxamide] | – |
| 31.9 | CCc1nc(-c2ccc(Cl)c(F)c2)nn1CC(=O)NCc1cnc[nH]1 [Example 29, N-[(1H-imidazol-5-yl)methyl]-2-[3-(4-chloro-3-fluorophenyl)-5-ethyl-1H-1,2,4-triazol-1-yl]acetamide] | – |
| 87.6 | CCc1nc(-c2ccc(Cl)c(F)c2)cn1CC(=O)NCc1cc(Cl)cc(Cl)c1 [Example 30, 2-[4-(4-chloro-3-fluorophenyl)-2-ethyl-1H-imidazol-1-yl]-N-(3,5-dichlorobenzyl) acetamide] | – |
| 39.5 | CNC(=O)c1cc(-c2ccc(Cl)c(F)c2)nn1CC(=O)NCc1cccc(OC)c1 [Example 25, 3-(4-chloro-3-fluorophenyl)-1-{[(3-methoxybenzyl)carbamoyl]methyl}-N-methyl-1H-pyrazole-5-carboxamide] | activation at 30 µM (full-length human PDE4B2; Protocol B): 21% |
| 83.9 | COc1cccc(CNC(=O)Cn2nc(-c3ccc(Cl)c(F)c3)nc2C(=O)N(C)C)c1 [Example 18, 3-(4-chloro-3-fluorophenyl)-1-{[(3-methoxybenzyl)carbamoyl]methyl}-N,N-dimethyl-1H-1,2,4-triazole-5-carboxamide] | – |
| 63.3 | COCCNC(=O)c1nc(-c2ccc(Cl)c(F)c2)nn1CC(=O)NCc1cccc(F)c1 [Example 20, 3-(4-chloro-3-fluorophenyl)-1-{[(3-fluorobenzyl)carbamoyl]methyl}-N-(2-methoxyethyl)-1H-1,2,4-triazole-5-carboxamide] | activation at 30 µM (full-length human PDE4B2; Protocol B): -22.4% |
| 93.7 | CCOC(=O)c1cc(-c2ccc(Cl)cc2)nn1CC(=O)NCc1cccc(F)c1 [Example 23, Ethyl 3-(4-chlorophenyl)-1-{[(3-fluorobenzyl)carbamoyl]methyl}-1H-pyrazole-5-carboxylate] | – |
| – | COC(=O)c1nc(-c2ccc(Cl)c(F)c2)nn1CC(=O)NCc1ccccc1 [Example 3, Methyl 1-[(benzylcarbamoyl)methyl]-3-(4-chloro-3-fluorophenyl)-1H-1,2,4-triazole-5-carboxylate] | activation at 30 µM (full-length human PDE4B2; Protocol A): -0.9%; activation at 30 µM (full-length human PDE4D5; Protocol A): 62.6% |
| 105 | COCCNC(=O)c1nc(-c2ccc(Cl)c(F)c2)nn1CC(=O)NCc1cccc(OC)c1 [Example 21, 3-(4-chloro-3-fluorophenyl)-1-{[(3-methoxybenzyl)carbamoyl]methyl}-N-(2-methoxyethyl)-1H-1,2,4-triazole-5-carboxamide] | – |
| 84.1 | CCNC(=O)c1nc(-c2ccc(Cl)c(F)c2)nn1CC(=O)NCc1cccc(F)c1 [Example 19, 3-(4-chloro-3-fluorophenyl)-1-{[(3-fluorobenzyl)carbamoyl]methyl}-N-ethyl-1H-1,2,4-triazole-5-carboxamide] | – |
| 87.4 | COC(=O)c1cc(-c2cccc(OC)c2)nn1CC(=O)NCc1cccc(F)c1 [Example 24, Methyl 1-{[(3-fluorobenzyl)carbamoyl]methyl}-3-(3-methoxyphenyl)-1H-pyrazole-5-carboxylate] | – |
